{"source": "paper PMC12112332", "about": "“Characterization of Novel and Known Activators of Cannabinoid Receptor Subtype 2 Reveals Mixed Pharmacology That Differentiates Mycophenolate Mofetil and GW-842,166X from MDA7” (International Journal of Molecular Sciences, 2025)", "format_in_all_cases": "cell-based", "key": {"rat CB2": {"target": "T1, rat CB2 (Rattus norvegicus, UniProt Q9QZN9)", "T1 sequence (Q9QZN9 1-360)": "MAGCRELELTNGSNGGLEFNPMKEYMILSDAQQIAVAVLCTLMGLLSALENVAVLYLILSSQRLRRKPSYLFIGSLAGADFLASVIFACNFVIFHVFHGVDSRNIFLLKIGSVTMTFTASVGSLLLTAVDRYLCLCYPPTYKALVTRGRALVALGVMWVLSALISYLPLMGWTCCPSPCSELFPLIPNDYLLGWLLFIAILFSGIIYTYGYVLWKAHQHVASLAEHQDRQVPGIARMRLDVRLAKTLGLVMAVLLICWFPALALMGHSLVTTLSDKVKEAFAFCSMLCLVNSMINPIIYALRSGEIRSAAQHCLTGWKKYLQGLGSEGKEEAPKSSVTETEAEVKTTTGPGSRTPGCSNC", "test": "PI hydrolysis (IP1) assay in HEK/Gqi9 cells expressing rat CB2", "set-up": "expressed in transfected cells", "details": "rCB2/Gqi9 cells", "procedure": "In a complementary assay, we used phosphoinositide (PI) hydrolysis in the presence of the chimeric G protein, Gqi9, to assess activity.\nOne day prior to experimentation, selected HEK/Gqi9 monoclonal cells stably expressing rat CB2 were plated onto poly-D-lysine coated clear-bottom 384-well plates (15,000 cells per well) in DMEM supplemented with 10% FBS and 20 mM HEPES. Ten minutes prior to the assay, the cell culture medium was replaced with 20 µL 37 °C Hank’s balanced salt solution (HBSS; with Ca^2+, Mg^2+, glucose). IP1 stimulation was then initiated by adding 5 µL of 5× agonist dissolved in HBSS plus 40 mM Li^+, and cells were incubated for an additional hour before aspiration and addition of Lysis Buffer. IP1 levels were determined using the Cisbio HTRF IP-ONE assay kit according to the manufacturer’s instructions, and fluorescence was measured using an Envision plate reader (PerkinElmer, Waltham, MA, USA). Data were acquired as HTRF ratio (665/620) and expressed as nanomolar levels of IP1."}, "[1]": {"target": "T2, M4 muscarinic receptor expressed in HEK/GIRK cells (no CB receptor) (Homo sapiens, UniProt P08173)", "T2 construct": "host or cells: HEK/GIRK cells without CB receptor", "T2 sequence (P08173 1-479)": "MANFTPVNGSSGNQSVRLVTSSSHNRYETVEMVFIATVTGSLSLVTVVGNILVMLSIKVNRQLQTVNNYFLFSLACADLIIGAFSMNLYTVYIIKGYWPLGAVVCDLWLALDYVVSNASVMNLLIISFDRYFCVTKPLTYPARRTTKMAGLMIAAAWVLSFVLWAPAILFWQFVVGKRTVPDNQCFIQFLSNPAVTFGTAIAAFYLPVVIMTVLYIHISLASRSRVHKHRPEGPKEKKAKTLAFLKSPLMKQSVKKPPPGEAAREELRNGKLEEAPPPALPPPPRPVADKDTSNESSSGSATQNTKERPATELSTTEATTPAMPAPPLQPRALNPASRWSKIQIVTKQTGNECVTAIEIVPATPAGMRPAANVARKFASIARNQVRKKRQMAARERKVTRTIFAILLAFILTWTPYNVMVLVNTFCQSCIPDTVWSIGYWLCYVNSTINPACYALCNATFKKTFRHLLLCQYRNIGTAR", "test": "Thallium flux assay in parental HEK/GIRK cells (no CB receptor), acetylcholine as agonist", "details": "presence of EC20 acetylcholine, cells without CB receptor", "source_text": "Mycophenolate mofetil is an immunosuppressant used to prevent organ transplant rejection and to treat autoimmune disorders such as lupus. To determine if mycophenolate mofetil exerts its activity in the thallium flux assay through rCB2, we tested it for activity in HEK cells expressing GIRK channels but not rCB2. Submaximal concentrations of acetylcholine were used as the agonist, targeting an M4 muscarinic receptor expressed in these HEK/GIRK cells. […] It was also critical to determine if mycophenolate mofetil was selective for the rCB2 versus rCB1 receptors, as activation of rCB1 receptors can have negative side effects, including anxiety, paranoia, and psychosis. […]\nThallium flux assays were performed as previously described in Niswender et al., 2008 [31]. […] Thallium flux was measured using the Hamamatsu FDSS/μCELL Kinetic Plate Imager (Bridgewater, NJ, USA). After the establishment of a fluorescence baseline (excitation, 480 ± 20 nm; emission, 540 ± 30 nm), 20 µL (2×) of test compound was added to the cells at 1 s and the response was measured. […] Raw kinetic data were analyzed in a multi-step process: (1) Fluorescence readings for each time point in a well were divided by the fluorescence reading at the initial time point to account for differences in cell number, non-uniform illumination, and dye-loading. […]"}, "Human CB2": {"target": "Human CB2 (Homo sapiens, UniProt P34972)", "sequence (P34972 whole entry)": "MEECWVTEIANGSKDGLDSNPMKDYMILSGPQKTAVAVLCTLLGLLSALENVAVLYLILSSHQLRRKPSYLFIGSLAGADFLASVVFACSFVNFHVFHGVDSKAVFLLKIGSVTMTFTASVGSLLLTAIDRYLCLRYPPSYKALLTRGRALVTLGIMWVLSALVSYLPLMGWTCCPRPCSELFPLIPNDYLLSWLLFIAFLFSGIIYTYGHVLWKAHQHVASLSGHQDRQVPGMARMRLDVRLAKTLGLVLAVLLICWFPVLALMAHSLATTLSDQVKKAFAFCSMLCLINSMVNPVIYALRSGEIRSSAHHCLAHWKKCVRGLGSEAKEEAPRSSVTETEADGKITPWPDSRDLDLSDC", "test": "Activity at the human CB2 receptor (thallium flux)"}}, "note": "Like-named read-outs stand apart in the source and are kept apart here.", "data": [{"smiles": "COc1c(C)c2c(c(O)c1C/C=C(\\C)CCC(=O)OCCN1CCOCC1)C(=O)OC2", "note": "[Mycophenolate mofetil]", "values": [{"measurement": "PI hydrolysis Max IP1, absence of 2-AG", "setting": "rat CB2; absence of 2-AG, IP1 concentration", "value": "438 ± 32", "unit": "nM"}, {"measurement": "EC50", "setting": "rat CB2; absence of 2-AG, read-out: PI hydrolysis potency, absence of 2-AG", "value": 521, "unit": "nM"}, {"measurement": "PI hydrolysis Max IP1, presence of 2-AG", "setting": "rat CB2; presence of EC20 2-AG, IP1 concentration", "value": "633 ± 122", "unit": "nM"}, {"measurement": "EC50", "setting": "rat CB2; presence of EC20 2-AG, read-out: PI hydrolysis potency, presence of 2-AG", "value": 700, "unit": "nM"}, {"measurement": "HEK GIRK (+) ACh pEC50 ± SEM % Max ± SEM", "setting": "[1]", "value": "Inactive"}, {"measurement": "human CB2 receptor % Max", "setting": "Human CB2", "value": "36 ± 4", "unit": "%"}, {"measurement": "EC50", "setting": "Human CB2; read-out: human CB2 receptor pEC50 (converted)", "value": 2000, "unit": "nM"}]}, {"smiles": "COc1c(C)c2c(c(O)c1C/C=C(\\C)CCC(=O)O)C(=O)OC2", "note": "[Mycophenolic acid]", "values": [{"measurement": "HEK GIRK (+) ACh pEC50 ± SEM % Max ± SEM", "setting": "[1]", "value": "Inactive"}]}]}
